In general, inhibition in vivo refers to the drop in the measured response relative to a control, in per cent. The low end stands for little suppression, the high end for strong suppression. By IC50 is commonly meant the point on the concentration scale where inhibition reaches its midpoint.

Structures are written as SMILES.

Test [1] in a line: In vivo inhibitory activity against Matrix metalloprotease enzyme by dialysis implant assay, value is relative to activity of CGS-27023 (65+/-2) at 25 mg/kg. po. It is filed as functional.
The nature of test [2]: In vivo inhibition of Matrix metalloprotease enzyme by Sponge-wrapped cartilage assay, value is relative to activity of RS-130830 (39+/-2) at 10 mg/kg. po. bid. It is filed as functional.
Test [3] addresses Collagenase 3 (Homo sapiens, UniProt P45452).

Take `CN1CCC(C(=O)NO)(S(=O)(=O)c2ccc(Oc3ccc(Cl)cc3)cc2)CC1`: in test [1], testing at 25 mg/kg gave an inhibition in vivo of 91%. In test [2], this compound came in with an inhibition in vivo at 10 mg/kg of 73%. The same compound registered an IC50 in test [3] of 2 nM.

(Values after ChEMBL document CHEMBL1145787, “Synthesis and structure-activity relationship of N-substituted 4-arylsulfonylpiperidine-4-hydroxamic acids as novel, orally active matrix metalloproteinase inhibitors for the treatment of osteoarthritis” (J Med Chem, 2003).)
